Measurements reported in patent US20210386729A1, “METHODS FOR TREATING LIVER DISORDERS USING FXR AGONISTS” (NOVARTIS AG, priority 2016, published 2021).
Values after ≈ are worked out from the molar mass of the structure shown. “Also recorded” adds a separate entry of the source. Read-outs that look alike come from different tables or passages of the source.

Tests used:
[1] = In vitro potency, human vs rat
[2] = Pharmacokinetics in the chronic 2 week rat ANIT-induced cholestasis model; format: in vivo; details: male, Wistar, po, day 13, serum; for AUC(0-t): read-out: AUC 0-24 hr
Experimental: (§1) Male Wistar rats were treated with ANIT (0.1% ANIT in chow diet) for 2 weeks. […] The serum samples were collected on day 14 for analysis of biomarkers of hepatobiliary injury (including ALT, AST, bilirubin and bile acids). […] The mean biomarker data were compared to the PK data (average concentration at each dose) for the modeling. The IC80 was determined using the Inhibitory effect Imax model (effect C=0 at Imax, C=infinity at E0) built in Phoenix WinNonlin 6.3 software. […] Therefore, we chose to use a mean of the IC80 for the four biomarkers (total bilirubin, total bile acids, ALT and AST) as the IC80 for efficacy in this model.
ND=not determined. Data are presented as mean (n=3/group).

[3] = tested on: FGF15; test: Serum FGF15 (MSD assay) in chronic rat ANIT-induced cholestasis model; format: in vivo; details: chronic treatment rat ANIT model
Experimental: Serum FGF15 levels were quantified using an FGF15 Meso Scale Discovery (MSD) assay. Mouse FGF15 antibody from R&D Systems (AF6755) was used both as capture and detection antibody in the assay. MSD SULFO-TAG NHS-Ester was used to label the FGF15 antibody. MSD standard 96-well plates were coated with the FGF15 capture antibody and the plates were blocked with MSD Blocker A (R93AA-2). After washing the plate with PBS+0.05% Tween 20, MSD diluent 4 was dispensed into each well and incubated for 30 min. 25 μl of calibrator dilutions or samples (serum or EDTA plasma) were dispensed into each well and incubated with shaking at RT. After washing, detection antibody was added and incubated with shaking for 1 h at RT. After washing and the addition of MSD Read buffer (R92TC-2), the plate was read on an MSD SECTOR Imager 6000. Plots of the standard curve and unknown samples were calculated using MSD data analysis software.
Activation of FXR in the ileum induces the expression of fibroblast growth factor 15 (FGF15 in rodent; FGF19 in human), a hormone that is secreted in the portal blood and signals to the liver to repress Cyp7a1 expression synergistically with SHP. The direct FXR-dependent induction of FGF15/19 along with FGF15/19's anti-cholestatic properties makes it a convenient serum biomarker for detecting target engagement of FXR agonists.

[4] = Single oral dose plasma pharmacokinetics in healthy subjects; format: in vivo, human; details: for CL/F / AUC(0-inf) / AUC(0-t) / Cmax / half-life / Tmax: healthy subjects, plasma; for AUC(0-inf) / AUC(0-t) / Cmax / half-life / Tmax: human
[5] = tested on: rat ANIT-induced cholestasis chronic treatment model; test: PK/PD modeling of effective exposure in rat ANIT-induced cholestasis chronic treatment model; format: in vivo
Experimental: as §1, with “acids). The PK samples (pre-dose, 0.5, 1, 3, 7, 10 and 24 h, n=3/dose group) were taken on day 13 (at steady-state).” for “acids).”, “model. From these studies, the IC80 of LJN452 was 0.127 ng/ml and the corresponding AUC0-24 h was 3.05 ng*h/ml (Table 1), and the corresponding efficacious dose is approximately 0.01 mg/kg (based on Table 1 and Table 2).” for “model.”
E0, effect at zero drug concentration; Imax, maximal drug effect; IC80, drug concentration producing 80% of the maximum effect.
The PK samples (pre-dose, 0.5, 1, 3, 7, 10 and 24 h, n=3/dose group) were taken on day 13 (at steady-state). AUC0-24 h was determined using Phoenix WinNonlin 6.3 software and the average concentrations were calculated from mean of AUC0-24 h at each dose (divided the AUC0-24 h by 24 h). The individual biomarker data were compared to the PK data (average concentration at each dose) for the modeling. Since the lowest dose (0.01 mg/kg) already approached maximal efficacy, the IC80 was chosen as the measurement of the efficacious exposure (Table 1). The IC80 was determined using the Inhibitory effect Imax model (effect C=0 at Imax, C=infinity at E0) built in Phoenix WinNonlin 6.3 software.
E0: effect at zero drug concentration; Imax: maximal drug effect IC80, drug concentration producing 80% of the maximum effect.

[6] = 10 ug, single oral dose 10 μg, fasted, mean
[7] = 30 ug, single oral dose 30 μg, fasted, mean
[8] = 100 ug, single oral dose 100 μg, fasted, mean
[9] = 300 ug, single oral dose 300 μg, fasted, mean
[10] = 1000 ug, single oral dose 1000 μg, fasted, mean
[11] = 3000 ug, single oral dose 3000 μg, fasted, mean
[12] = effect at zero drug concentration, 2-week rat ANIT model, serum
[13] = maximal drug effect, 2-week rat ANIT model, serum

With `O=C(O)c1cc(F)c2nc(N3C4CC[C@H]3CC(OCc3c(-c5ccccc5OC(F)(F)F)noc3C3CC3)C4)sc2c1` (stereo partly drawn) [Compound A] the “in vitro potency between human and rat” value [1] was “similar”, the Cmax ([2]; 0.01 mg/kg) was 0.39 ng/mL and the AUC(0-t) ([2]; 0.01 mg/kg) was 3.49 ng·h/mL. For the same molecule, the Cmax ([2]; 0.05 mg/kg) was 2.28 ng/mL, the Cmax ([2]; 0.25 mg/kg) was 15.6 ng/mL and the AUC(0-t) ([2]; 0.25 mg/kg) was 158 ng·h/mL. For the same molecule, the Cmax ([2]; 1.0 mg/kg) was 52 ng/mL, the AUC(0-t) ([2]; 1.0 mg/kg) was 582 ng·h/mL and the “serum FGF15 levels” value [3] was “stimulated serum FGF15 expression; also recorded: Significant dose-dependent induction”. It also gave a CL/F ([4]; single oral dose 10 μg, fasted, mean) of 2.98 L/h, a CL/F ([4]; single oral dose 30 μg, fasted, mean) of 2.26 L/h and a CL/F ([4]; single oral dose 100 μg, fasted, mean) of 3.08 L/h. For the same molecule, the CL/F ([4]; single oral dose 300 μg, fasted, mean) was 3.21 L/h, the CL/F ([4]; single oral dose 1000 μg, fasted, mean) was 2.43 L/h and the CL/F ([4]; single oral dose 3000 μg, fasted, mean) was 3.63 L/h. For the same molecule, the AUC(0-inf) [4, 6] was 3.39 ng·h/mL, the AUC(0-t) [4, 6] was 2.79 ng·h/mL and the Cmax [4, 6] was 0.186 ng/mL. The half-life ([4]; 10 ug, single oral dose 10 μg, fasted, mean, read-out: T1/2 (converted)) was 14.9 h, the Tmax ([4]; 10 ug, single oral dose 10 μg, fasted, median, read-out: Tmax) was 4 h and the AUC(0-inf) [4, 7] was 13.4 ng·h/mL. The AUC(0-t) [4, 7] was 12.7 ng·h/mL, the Cmax [4, 7] was 0.627 ng/mL and the half-life ([4]; 30 ug, single oral dose 30 μg, fasted, mean, read-out: T1/2 (converted)) was 13.7 h. The Tmax ([4]; 30 ug, single oral dose 30 μg, fasted, median, read-out: Tmax) was 4 h, the AUC(0-inf) [4, 8] was 37.9 ng·h/mL and the AUC(0-t) [4, 8] was 34.8 ng·h/mL. It also gave a Cmax [4, 8] of 1.73 ng/mL, a half-life ([4]; 100 ug, single oral dose 100 μg, fasted, mean, read-out: T1/2 (converted)) of 13.5 h and a Tmax ([4]; 100 ug, single oral dose 100 μg, fasted, median, read-out: Tmax) of 4 h. The AUC(0-inf) [4, 9] was 123 ng·h/mL, the AUC(0-t) [4, 9] was 119 ng·h/mL and the Cmax [4, 9] was 6.41 ng/mL. It also gave a half-life ([4]; 300 ug, single oral dose 300 μg, fasted, mean, read-out: T1/2 (converted)) of 15.3 h, a Tmax ([4]; 300 ug, single oral dose 300 μg, fasted, median, read-out: Tmax) of 4 h and an AUC(0-inf) [4, 10] of 482 ng·h/mL. For the same molecule, the AUC(0-t) [4, 10] was 416 ng·h/mL, the Cmax [4, 10] was 22.1 ng/mL and the half-life ([4]; 1000 ug, single oral dose 1000 μg, fasted, mean, read-out: T1/2 (converted)) was 21.9 h. For the same molecule, the Tmax ([4]; 1000 ug, single oral dose 1000 μg, fasted, median, read-out: Tmax) was 4 h, the AUC(0-inf) [4, 11] was 933 ng·h/mL and the AUC(0-t) [4, 11] was 888 ng·h/mL. The Cmax [4, 11] was 54.2 ng/mL, the half-life ([4]; 3000 ug, single oral dose 3000 μg, fasted, mean, read-out: T1/2 (converted)) was 16.5 h and the Tmax ([4]; 3000 ug, single oral dose 3000 μg, fasted, median, read-out: Tmax) was 4 h. For the same molecule, the Tmax ([4]; single oral dose, fasted, read-out: median Tmax) was 4 h, the half-life ([4]; single oral dose, range across doses, read-out: mean apparent terminal elimination half-life) was 13 to 22 h and the “dose proportionality of mean Cmax and AUCinf” value ([4]; single dose, dose range 10 μg to 3000 μg) was “approximately dose proportional increase”. For the same molecule, the “Mean (efficacious AUC0-24 h)” value ([5]; AUC0-24 h corresponding to mean IC80, rat ANIT model) was 3.05 ng·h/mL, the IC80 ([5]; drug concentration producing 80% of the maximum effect, rat ANIT model, read-out: IC80, ALT) was 0.054 ng/mL (≈ 0.0895 nM) and the IC80 ([5]; drug concentration producing 80% of the maximum effect, rat ANIT model, read-out: IC80, AST) was 0.076 ng/mL (≈ 0.126 nM). The IC80 ([5]; drug concentration producing 80% of the maximum effect, rat ANIT model, read-out: IC80, Total bile acids) was 0.155 ng/mL (≈ 0.257 nM), the IC80 ([5]; drug concentration producing 80% of the maximum effect, rat ANIT model, read-out: IC80, Total bilirubin) was 0.223 ng/mL (≈ 0.369 nM) and the “E0, ALT” value [5, 12] was 138.2 U/L. For the same molecule, the “E0, AST” value [5, 12] was 272.8 U/L, the “E0, Total bile acids” value [5, 12] was 147.8 µmol/L and the “E0, Total bilirubin” value [5, 12] was 2.3 mg/dL. For the same molecule, the “Imax, ALT” value [5, 13] was 84.2 U/L, the “Imax, AST” value [5, 13] was 140.3 U/L and the “Imax, Total bile acids” value [5, 13] was 125.5 µmol/L. The “Imax, Total bilirubin” value [5, 13] was 2.0 mg/dL, the IC80 ([5]; mean of IC80 for total bilirubin, total bile acids, ALT and AST, rat ANIT model, read-out: Mean (IC80)) was 0.127 ng/mL (≈ 0.21 nM) and the corresponding efficacious dose ([5]; rat ANIT model, based on Table 1 and Table 2) was “approximately 0.01 mg/kg”.
